# Test results taken from PubChem BioAssay AID330 (DTP/NCI, 2004).
# Where “and” joins values, the source holds several entries; their conditions need not be identical. Equal values may be shown once. Toxic doses and inconclusive results are not listed.
# Tested on: P388 leukemia ip, CD2F1 mice, survival T/C
# Test: NCI In Vivo Anticancer Drug Screen. Data for tumor model P388 Leukemia (intraperitoneal) in CD2F1 (CDF1) mice
# Conditions: endpoint: median survival time, higher = longer survival
# Summary of the method: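 Mice carrying the transplanted tumor received test compound or vehicle. Survival was recorded in each group, and the value is the treated-group measurement divided by that of the vehicle-treated control group.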
# [1] = dose: 50.0 mg/kg/injection, schedule: Q01DX005 (ip), vehicle: saline with Tween-80
# [2] = dose: 100.0 mg/kg/injection, schedule: Q01DX005 (ip), vehicle: saline with Tween-80
# [3] = dose: 200.0 mg/kg/injection, schedule: Q01DX005 (ip), vehicle: saline with Tween-80
# [4] = dose: 50.0 mg/kg/injection, schedule: Q04DX003 (ip), vehicle: saline with Tween-80
# [5] = dose: 50.0 mg/kg/injection, schedule: Q01DX009 (ip), vehicle: saline with Tween-80
# [6] = dose: 12.5 mg/kg/injection, schedule: Q01DX009 (ip), vehicle: saline with Tween-80
# [7] = dose: 60.0 mg/kg/injection, schedule: Q01DX005 (ip), vehicle: saline with Tween-80
# [8] = dose: 120.0 mg/kg/injection, schedule: Q01DX005 (ip), vehicle: saline with Tween-80
# [9] = dose: 240.0 mg/kg/injection, schedule: Q01DX005 (ip), vehicle: saline with Tween-80
# [10] = dose: 50.0 mg/kg/injection, schedule: Q01DX005 (ip), vehicle: Klucel (hydroxypropylcellulose) (HPC)
# [11] = dose: 100.0 mg/kg/injection, schedule: Q01DX005 (ip), vehicle: Klucel (hydroxypropylcellulose) (HPC)
# [12] = dose: 200.0 mg/kg/injection, schedule: Q01DX005 (ip), vehicle: Klucel (hydroxypropylcellulose) (HPC)
# [13] = dose: 50.0 mg/kg/injection, schedule: Q01DX009 (ip), vehicle: Klucel (hydroxypropylcellulose) (HPC)
structure (smiles),measurement,setting,value
O=C1c2ccccc2C(=O)N1c1nncs1,T/C,"dose: 100.0 mg/kg/injection, schedule: Q04DX002 (ip), vehicle: saline with Tween-80",99 % of control
same,T/C,"dose: 200.0 mg/kg/injection, schedule: Q04DX002 (ip), vehicle: saline with Tween-80",99 % of control
same,T/C,"dose: 400.0 mg/kg/injection, schedule: Q04DX002 (ip), vehicle: saline with Tween-80",101 % of control
COC(=O)n1nc(C)c(N(C)C)n1,T/C,[1],99 % of control
same,T/C,[2],106 % of control
same,T/C,[3],113 % of control
CCOC(=O)C(Cc1ccc(N(CCCl)CCCl)cc1)NP1(=O)NCCCO1 (centres undefined),T/C,"dose: 14.0 mg/kg/injection, schedule: Q04DX003 (ip), vehicle: saline with Tween-80",186 % of control
same,T/C,"dose: 22.0 mg/kg/injection, schedule: Q04DX003 (ip), vehicle: saline with Tween-80",172 % of control
same,T/C,"dose: 33.0 mg/kg/injection, schedule: Q04DX003 (ip), vehicle: saline with Tween-80",218 % of control
same,T/C,[4],240 % of control
CCOC(=O)NC,T/C,"dose: 100.0 mg/kg/injection, schedule: Q04DX003 (ip), vehicle: saline",104 % of control
same,T/C,"dose: 200.0 mg/kg/injection, schedule: Q04DX003 (ip), vehicle: saline",100 % of control
same,T/C,"dose: 400.0 mg/kg/injection, schedule: Q04DX003 (ip), vehicle: saline",104 % of control
CC1C(N)CC2CC1C2(C)C (centres undefined),T/C,[5],104 % of control
same,T/C,"dose: 100.0 mg/kg/injection, schedule: Q01DX009 (ip), vehicle: saline with Tween-80",112 % of control
S=P(C1CCCCC1)(C1CCCCC1)C(c1cccnc1)N1CCCC1 (centres undefined),T/C,"dose: 50.0 mg/kg/injection, schedule: Q01DX009 (ip), vehicle: saline",104 % of control
same,T/C,"dose: 100.0 mg/kg/injection, schedule: Q01DX009 (ip), vehicle: saline",94 % of control
same,T/C,"dose: 200.0 mg/kg/injection, schedule: Q01DX009 (ip), vehicle: saline",87 % of control
C#CCOC1CC(C)(O)Cc2cc3c(c(O)c21)C(=O)c1c(O)cc2c(c1C3=O)OC1OC2(C)C(O)C(N(C)C)C1O (centres undefined),T/C,"dose: 20.0 mg/kg/injection, schedule: Q01DX009 (ip), vehicle: other",89 % of control
CCCCCc1c(-c2n[nH]c(C)c2CCCCC)n[nH]c1C,T/C,"dose: 60.0 mg/kg/injection, schedule: Q01DX005 (ip), vehicle: Klucel (hydroxypropylcellulose) (HPC)",92 % of control
same,T/C,"dose: 120.0 mg/kg/injection, schedule: Q01DX005 (ip), vehicle: Klucel (hydroxypropylcellulose) (HPC)",96 % of control
same,T/C,"dose: 240.0 mg/kg/injection, schedule: Q01DX005 (ip), vehicle: Klucel (hydroxypropylcellulose) (HPC)",100 % of control
CCOC(=O)N1Cc2cc3cc(Cl)ccc3nc2C1,T/C,"dose: 3.13 mg/kg/injection, schedule: Q01DX009 (ip), vehicle: saline with Tween-80",98 % of control
same,T/C,"dose: 6.25 mg/kg/injection, schedule: Q01DX009 (ip), vehicle: saline with Tween-80",105 % of control
same,T/C,"dose: 8.0 mg/kg/injection, schedule: Q01DX009 (ip), vehicle: saline with Tween-80",95 % of control
same,T/C,[6],105 % of control
same,T/C,"dose: 16.0 mg/kg/injection, schedule: Q01DX009 (ip), vehicle: saline with Tween-80",88 % of control
same,T/C,"dose: 25.0 mg/kg/injection, schedule: Q01DX009 (ip), vehicle: saline with Tween-80",116 % of control
same,T/C,"dose: 32.0 mg/kg/injection, schedule: Q01DX009 (ip), vehicle: saline with Tween-80",87 % of control
same,T/C,"dose: 64.0 mg/kg/injection, schedule: Q01DX009 (ip), vehicle: saline with Tween-80",95 % of control
same,T/C,"dose: 128.0 mg/kg/injection, schedule: Q01DX009 (ip), vehicle: saline with Tween-80",100 % of control
CN(CCN1C(=O)c2cccc3cc(N)cc(c23)C1=O)CCN1C(=O)c2cccc3cc(N)cc(c23)C1=O,T/C,[1],112 % of control
same,T/C,[2],106 % of control
same,T/C,[3],107 % of control
COc1cc2cc(c1Cl)N(C)C(=O)/C=C/C1(C)OC1C(C)C1CC(O)(NC(=O)O1)C(OC)/C=C/C=C(\C)C2OC (centres undefined),T/C,"dose: 4.0 micrograms/kg/injection, schedule: Q01DX009 (ip), vehicle: distilled water + alcohol",103 % of control
same,T/C,"dose: 8.0 micrograms/kg/injection, schedule: Q01DX009 (ip), vehicle: distilled water + alcohol",100 % of control
same,T/C,"dose: 64.0 micrograms/kg/injection, schedule: Q01DX009 (ip), vehicle: distilled water + alcohol",99 % of control
same,T/C,"dose: 128.0 micrograms/kg/injection, schedule: Q01DX009 (ip), vehicle: distilled water + alcohol",91 % of control
O=C1Nc2ccccc2C1NC(=S)Nc1ccc(Br)cc1 (centres undefined),T/C,[7],91 % of control
same,T/C,[8],94 % of control
same,T/C,[9],88 % of control
CC1=C(CC/C(C)=C/CCC2=CCC(C3=CC(=O)OC3O)OC2O)C(C)(C)CCC1 (centres undefined),T/C,"dose: 1.0 mg/kg/injection, schedule: Q01DX009 (ip), vehicle: Klucel (hydroxypropylcellulose) (HPC)",116 % of control
same,T/C,"dose: 2.0 mg/kg/injection, schedule: Q01DX009 (ip), vehicle: Klucel (hydroxypropylcellulose) (HPC)",111 % of control
same,T/C,"dose: 4.0 mg/kg/injection, schedule: Q01DX009 (ip), vehicle: Klucel (hydroxypropylcellulose) (HPC)",117 % of control
same,T/C,"dose: 8.0 mg/kg/injection, schedule: Q01DX009 (ip), vehicle: Klucel (hydroxypropylcellulose) (HPC)",100 % of control
same,T/C,"dose: 16.0 mg/kg/injection, schedule: Q01DX009 (ip), vehicle: Klucel (hydroxypropylcellulose) (HPC)",117 % of control
O=C(NC(Cc1cn(Cc2ccccc2)cn1)C(=O)O)OCC1c2ccccc2-c2ccccc21 (centres undefined),T/C,[10],104 % of control
same,T/C,[11],98 % of control
same,T/C,[12],99 % of control
Nc1ccc(-c2csc(-c3ccccc3)n2)c(Cl)c1,T/C,"dose: 12.5 mg/kg/injection, schedule: Q01DX009 (ip), vehicle: Klucel (hydroxypropylcellulose) (HPC)",98 % of control and 99 % of control
same,T/C,"dose: 25.0 mg/kg/injection, schedule: Q01DX009 (ip), vehicle: Klucel (hydroxypropylcellulose) (HPC)",103 % of control and 115 % of control
same,T/C,[13],103 % of control and 113 % of control
O=C(O)/C=N/NS(=O)(=O)Cc1ccccc1,T/C,"dose: 100.0 mg/kg/injection, schedule: Q01DX009 (ip), vehicle: other",185 % of control
same,T/C,"dose: 200.0 mg/kg/injection, schedule: Q01DX009 (ip), vehicle: other",154 % of control and 166 % of control
COc1ccc2c(c1[N+](=O)[O-])CCCCC2=O,T/C,"dose: 100.0 mg/kg/injection, schedule: Q01DX009 (sc), vehicle: olive oil, sesame oil, peanut oil",104 % of control
same,T/C,"dose: 200.0 mg/kg/injection, schedule: Q01DX009 (sc), vehicle: olive oil, sesame oil, peanut oil",95 % of control
same,T/C,"dose: 400.0 mg/kg/injection, schedule: Q01DX009 (sc), vehicle: olive oil, sesame oil, peanut oil",107 % of control
COc1ccc2c(c1)CCC1C=NOC21 (centres undefined),T/C,[10],97 % of control
same,T/C,[11],103 % of control
same,T/C,[12],97 % of control
Nc1ccc2nc3ccc(=O)cc-3n(-c3ccccc3)c2c1,T/C,"dose: 0.5 mg/kg/injection, schedule: Q01DX009 (ip), vehicle: saline",115 % of control
same,T/C,"dose: 1.0 mg/kg/injection, schedule: Q01DX009 (ip), vehicle: saline",124 % of control
same,T/C,"dose: 1.25 mg/kg/injection, schedule: Q01DX009 (ip), vehicle: saline",102 % of control
same,T/C,"dose: 2.5 mg/kg/injection, schedule: Q01DX009 (ip), vehicle: saline",104 % of control
same,T/C,"dose: 5.0 mg/kg/injection, schedule: Q01DX009 (ip), vehicle: saline",105 % of control
same,T/C,"dose: 20.0 mg/kg/injection, schedule: Q01DX009 (ip), vehicle: saline",119 % of control
same,T/C,"dose: 40.0 mg/kg/injection, schedule: Q01DX009 (ip), vehicle: saline",114 % of control
COc1ccc(C(c2cc3c(cc2O)OCO3)N2CCCCC2)cc1 (centres undefined),T/C,[7],114 % of control
same,T/C,[8],112 % of control
same,T/C,[9],121 % of control
C=CCN=C(NC#N)SC,T/C,[13],103 % of control
same,T/C,"dose: 100.0 mg/kg/injection, schedule: Q01DX009 (ip), vehicle: Klucel (hydroxypropylcellulose) (HPC)",111 % of control
CC1C(=O)c2cc3c(cc2CCN(C)Cc2c1ccc1c2OCO1)OCO3 (centres undefined),T/C,"dose: 5.0 mg/kg/injection, schedule: Q01DX009 (ip), vehicle: saline with Tween-80",100 % of control
same,T/C,"dose: 10.0 mg/kg/injection, schedule: Q01DX009 (ip), vehicle: saline with Tween-80",99 % of control
same,T/C,[6],90 % of control
same,T/C,"dose: 25.0 mg/kg/injection, schedule: Q04DX003 (ip), vehicle: saline with Tween-80",109 % of control
same,T/C,[5],90 % of control
same,T/C,[4],104 % of control
O=C(O)C(=O)O.O=C(O)C(=O)O.O=C(O)C(=O)O.[Rh],T/C,"dose: 200.0 mg/kg/injection, schedule: Q04DX003 (ip), vehicle: water",95 % of control
